Test results as given in patent US20250108036A1, “COMPOSITIONS FOR REMOVING SENESCENT CELLS AND USES THEREOF” (LIFECEUTIX CO., LTD., priority 2021, published 2025).

Legend:
[1] = test system: foreskin cells in which senescence was induced by doxorubicin; experiment: CellTiter-Glo cell viability of doxorubicin-induced senescent foreskin cells (Examples 1-2, 10, 11, 13; Tables 4, 63, 65); format: cell-based, human; settings: Homo sapiens, 72 h, doxorubicin-induced senescent foreskin cells, CellTiter-Glo, 0 μM = 100, read-out: Survival (%); for viability at 1.1 µM: 1.1 μM test compound; for viability at […]: […] test compound; for viability at 10 µM: 10 μM test compound; for viability at 30 µM: 30 μM test compound
Description: After 3 days, cell viability was measured using CellTiter-Glo Luminescent Cell Viability Assay (Promega) or light microscopy.

HMGN1 [2] = experiment: HMGN1 ELISA in culture medium of foreskin cells (Examples 10, 11; Tables 62, 63, 64); format: cell-based, human; settings: Homo sapiens, 30 μM test compound, doxorubicin-treated foreskin cells, DMSO = 100; read-out: HMGN1
HMGN1 [3] = experiment: HMGN1 ELISA in culture medium of A549 cancer cells (Example 12, Table 66); format: cell-based, human; settings: Homo sapiens, A549, doxorubicin-induced senescent A549 cells, test compound 30 μM, ELISA, DMSO = 100; read-out: HMGN1 (amount of HMGN1 secreted in the cell culture)
A549 = experiment: CellTiter-Glo cell viability of senescent A549 cancer cells (Example 12, Table 67); format: cell-based, human; settings: Homo sapiens, A549, doxorubicin-induced senescent A549 cancer cells, CellTiter-Glo, read-out: Survival (%); for viability at 1.1 µM: 1.1 μM test compound; for viability at 10 µM: 10 μM test compound; for viability at 30 µM: 30 μM test compound
p16, MMP3, IL6 = p16, MMP3, IL6 mRNA qRT-PCR in groin fat of obese mice given senescent cells killed by test compounds (Example 16, Table 72); format: in vivo, C57BL6J mice; settings: obese mice administered senescent cells whose death was induced by the test compound
Description: To obtain preadipocytes, groin fat tissue was collected from an 8-week-old female C57BL6J mouse (purchased from KRIBB Laboratory Animal Resource Center). The fat tissue was cut into small pieces and treated with collagenase to decompose the fat tissue, then centrifuged to collect the stromal vascular fraction (SVF) containing preadipocytes. It was washed with a washing medium (HBSS, purchased from GenDEPOT; 3.5% Albumin Fraction V, purchased from GenDEPOT; 100 U/ml Penicillin & Streptomycin, purchased from Invitrogen), mixed again, and extracted by filtering through a 100 μm nylon mesh. The isolated preadipocytes were cultured in the designated medium (DMEM, purchased from GenDEPOT; 20% FBS, purchased from GenDEPOT; 100 U/ml Penicillin & Streptomycin, purchased from Invitrogen). In the same manner as Example 1, cells were treated with doxorubicin at a concentration of 250 nM for 24 hours and cultured for an additional 21 days to induce cell senescence. Cells were treated with doxorubicin at a concentration of 250 nM for 24 hours and cultured for an additional 21 days to induce cell senescence. By treating the test compounds in the same manner as in Example 13, it was confirmed using an optical microscope that the death of most senescent cells was induced. The killed preadipocytes were washed using PBS (purchased from Welgene) and then mixed with PBS at a concentration of 5×10^5 cells/200 μl. It was administered subcutaneously to 8-week-old female C57BL6J mice (purchased from KRIBB Laboratory Animal Resource Center). At 7 and 10 days after administration of the killed senescent cells, 2 million senescent preadipocytes were mixed in 200 μl of PBS and administered into the abdominal cavity of mice. After administration of killed senescent cells, obesity was induced in mice with a high-fat diet (DIO) for 8 weeks in the same manner as in Example 9-1. Afterwards, the mouse was sacrificed in the same manner as in Example 7-2, total RNA was extracted from the groin fat tissue, and qRT-PCR was performed and analyzed using the synthesized cDNA. […] The mRNA amount of p16, MMP3, and IL6 without administration of senescent cells whose death was induced by the test compounds was calculated as 100%, and the amount of p16, MMP3, and IL6 after administration of the senescent cells whose death was induced by the test compounds was compared with them. Furthermore, an open field test was performed to analyze aging-related frailty in mice using the same method as Example 7-7. […] The amount of activity evaluation without administration of senescent cells whose death was induced by the test compounds was calculated as 100% and compared it with the amount of activity evaluation after administration of senescent cells whose death was induced by the test compounds. […]

[4] = open field test in obese mice given senescent cells killed by test compounds (Example 16, Table 72); format: in vivo, C57BL6J mice; settings: obese mice administered senescent cells whose death was induced by the test compound
Description: To obtain preadipocytes, groin fat tissue was collected from an 8-week-old female C57BL6J mouse (purchased from KRIBB Laboratory Animal Resource Center). The fat tissue was cut into small pieces and treated with collagenase to decompose the fat tissue, then centrifuged to collect the stromal vascular fraction (SVF) containing preadipocytes. It was washed with a washing medium (HBSS, purchased from GenDEPOT; 3.5% Albumin Fraction V, purchased from GenDEPOT; 100 U/ml Penicillin & Streptomycin, purchased from Invitrogen), mixed again, and extracted by filtering through a 100 μm nylon mesh. The isolated preadipocytes were cultured in the designated medium (DMEM, purchased from GenDEPOT; 20% FBS, purchased from GenDEPOT; 100 U/ml Penicillin & Streptomycin, purchased from Invitrogen). In the same manner as Example 1, cells were treated with doxorubicin at a concentration of 250 nM for 24 hours and cultured for an additional 21 days to induce cell senescence. Cells were treated with doxorubicin at a concentration of 250 nM for 24 hours and cultured for an additional 21 days to induce cell senescence. By treating the test compounds in the same manner as in Example 13, it was confirmed using an optical microscope that the death of most senescent cells was induced. The killed preadipocytes were washed using PBS (purchased from Welgene) and then mixed with PBS at a concentration of 5×10^5 cells/200 μl. It was administered subcutaneously to 8-week-old female C57BL6J mice (purchased from KRIBB Laboratory Animal Resource Center). At 7 and 10 days after administration of the killed senescent cells, 2 million senescent preadipocytes were mixed in 200 μl of PBS and administered into the abdominal cavity of mice. After administration of killed senescent cells, obesity was induced in mice with a high-fat diet (DIO) for 8 weeks in the same manner as in Example 9-1. Afterwards, the mouse was sacrificed in the same manner as in Example 7-2, total RNA was extracted from the groin fat tissue, and qRT-PCR was performed and analyzed using the synthesized cDNA. […] The mRNA amount of p16, MMP3, and IL6 without administration of senescent cells whose death was induced by the test compounds was calculated as 100%, and the amount of p16, MMP3, and IL6 after administration of the senescent cells whose death was induced by the test compounds was compared with them. Furthermore, an open field test was performed to analyze aging-related frailty in mice using the same method as Example 7-7. […] The amount of activity evaluation without administration of senescent cells whose death was induced by the test compounds was calculated as 100% and compared it with the amount of activity evaluation after administration of senescent cells whose death was induced by the test compounds.

Row | Compound | viability at 1.1 µM [1] [%] | activity at 30 µM (HMGN1 [2]) [%] | activity at 30 µM (HMGN1 [3]) [%] | viability at 1.1 µM (A549) [%] | IL6 mRNA (%) (p16, MMP3, IL6) | MMP3 mRNA (%) (p16, MMP3, IL6) | p16 mRNA (%) (p16, MMP3, IL6) | Open Field Test Time in Center (%) [4] | viability at […] [1] [%] | viability at 10 µM [1] [%] | viability at 30 µM [1] [%] | viability at 10 µM (A549) [%] | viability at 30 µM (A549) [%]
1 | C[C@H]1Cc2c([nH]c3ccccc23)[C@H](c2ccc(C(=O)N[C@]34CC5C[C@H](C[C@H](C5)C3)C4)cc2)N1C(=O)CCl [LX-411] | 0.2 | 300 | 335 | 1.8 | 71.9 (±7.2) % | 92.7 (±8.1) % | 79.7 (±6.6) % | 163 (±9) % |  |  |  |  | 
2 | CC1(C)CC[C@]2(NC(=O)C(C)(F)F)CC[C@]3(C)[C@H](C(=O)C=C4[C@@]5(C)C=C(C#N)C(=O)C(C)(C)[C@@H]5CC[C@]43C)[C@@H]2C1 [LX-2101, Omaveloxolone, reference compound] | 1.8 | 274 | 297 | 71.6 | 75.9 (±6.7) % | 68.3 (±16.4) % | 73.8 (±9.7) % | 144.9 (±26.6) % |  |  |  |  | 
3 | COc1cc(OC)cc(O[C@H]2OC3O[C@@]4(C)CCC5[C@H](C)CCC([C@H]2C)[C@@]35OO4)c1 (stereo partly drawn) [LX-502] | 59.1 | 274 | 321 | 78.4 | 83.3 (±5.1) % | 77.4 (±8)^ % | 81.7 (±7.8) % | 126 (±20.4) % | 10.4 |  |  |  | 
4 | CCc1ccc(C(=O)C(C)CN2CCCCC2)cc1 (stereo not drawn) [LX-1401, Eperisone, reference compound] | 96.4 | 296 | 287 | 99 | 72.8 (±10.4) % | 75.1 (±9.4) % | 83.4 (±6.9) % | 166.7 (±14.8) % | 88.1 | 10.2 | 9 | 49.9 | 22.8
5 | C[C@@H]1CC[C@@]23C[C@H](O)C(=O)[C@@]2(O)[C@]1(C)[C@H](OC(=O)CCl)C[C@@H](C1=CCn2c(=O)n(-c4ccccc4)c(=O)n2C1)[C@@H]3C [LX-1801, (2S,3aS,4S,5R,7R,8S,8aS,11R)-7-(1,3-Dioxo-2-phenyl-2,3,5,8-tetrahydro-1H-[1,2,4]triazolo[1,2-a]pyridazin-6-yl)-2,3a-dihydroxy-4,8,11-trimethyl-3-oxooctahydro-1H-4,8a-propanoazulen-5-yl 2-Chloroacetate] | 8.7 | 291 | 295 | 60.6 | 56.4 (±12.4) % | 67.8 (±13.1) % | 62.5 (±9.4) % | 173.4 (±18.6) % |  |  |  | 25.1 | 
6 | COCC1(CO)C(=O)C2CCN1CC2 (stereo not drawn) [LX-701, Eprenetapopt, reference compound] | 99.3 | 277 | 297 | 99.2 | 68.2 (±14.3) % | 72.5 (±9.2) % | 81.9 (±6.8) % | 181.8 (±27.1) % | 100 | 45.9 | 27.4 | 91 | 11.3
7 | CCC(C)SSc1ncc[nH]1 (stereo not drawn) [LX-307] | 101 | 258 | 305 | 101 | 87.2 (±10.5) % | 76.7 (±7.7) % | 73.1 (±8.5) % | 159 (±9.9) % | 85.6 | 14.5 | 3.5 | 72.5 | 7.6
8 | Fc1ccc(-n2cc(CCCCN3CCC4(CC3)OCc3ccccc34)c3ccccc32)cc1 [LX-1102, Siramesine, reference compound] | 94 | 271 | 324 | 99.5 | 76.2 (±7.1) % | 95.4 (±9.6) % | 82.9 (±4.8) % | 146.2 (±17.1) % | 13.9 | 3.1 |  | 17.7 | 
